#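 Each compound was tested at five concentrations against cells in 96-well plates for 48 hours. At the GI50, growth is halved. TGI: concentration producing complete growth inhibition.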
# Tests used:
# Experiment in all cases: NCI-60 cell line screen, 48 h
# A549 NSCLC = test system: A549 NSCLC
# T-47D breast = test system: T-47D breast
# UACC-62 melanoma = test system: UACC-62 melanoma
# SNB-75 CNS = test system: SNB-75 CNS
# HCC-2998 colon = test system: HCC-2998 colon
# SK-OV-3 ovarian = test system: SK-OV-3 ovarian
# COLO 205 colon = test system: COLO 205 colon
# SF-295 CNS = test system: SF-295 CNS
# TK-10 renal = test system: TK-10 renal
# NCI-H460 lung = test system: NCI-H460 lung
# HOP-92 NSCLC = test system: HOP-92 NSCLC
# DU-145 prostate = test system: DU-145 prostate
# OVCAR-3 ovarian = test system: OVCAR-3 ovarian
# 786-0 renal = test system: 786-0 renal
# OVCAR-8 ovarian = test system: OVCAR-8 ovarian
# NCI-H23 lung = test system: NCI-H23 lung
# OVCAR-5 ovarian = test system: OVCAR-5 ovarian
# LOX IMVI melanoma = test system: LOX IMVI melanoma
# SF-539 CNS = test system: SF-539 CNS
# RPMI-8226 leukemia = test system: RPMI-8226 leukemia
# NCI-H522 lung = test system: NCI-H522 lung
# HT29 colon = test system: HT29 colon
# RXF 393 renal = test system: RXF 393 renal
# A498 renal = test system: A498 renal
# PC-3 prostate = test system: PC-3 prostate
# CCRF-CEM leukemia = test system: CCRF-CEM leukemia
# NCI/ADR-RES ovarian = test system: NCI/ADR-RES ovarian
# IGROV1 ovarian = test system: IGROV1 ovarian
# MCF7 breast = test system: MCF7 breast
# SW-620 colon = test system: SW-620 colon
# HOP-62 NSCLC = test system: HOP-62 NSCLC
# NCI-H226 lung = test system: NCI-H226 lung
# UACC-257 melanoma = test system: UACC-257 melanoma
# MDA-MB-231 breast = test system: MDA-MB-231 breast
# BT-549 breast = test system: BT-549 breast
# SK-MEL-5 melanoma = test system: SK-MEL-5 melanoma
# SNB-19 CNS = test system: SNB-19 CNS
# K-562 leukemia = test system: K-562 leukemia
# SK-MEL-28 melanoma = test system: SK-MEL-28 melanoma
# KM12 colon = test system: KM12 colon
# MOLT-4 leukemia = test system: MOLT-4 leukemia
# HS 578T breast = test system: HS 578T breast
# ACHN renal = test system: ACHN renal
# MDA-MB-435 = test system: MDA-MB-435
# SK-MEL-2 melanoma = test system: SK-MEL-2 melanoma
# SN12C renal = test system: SN12C renal
# EKVX NSCLC = test system: EKVX NSCLC
# OVCAR-4 ovarian = test system: OVCAR-4 ovarian
# SR leukemia = test system: SR leukemia
# M14 melanoma = test system: M14 melanoma
# HL-60(TB) leukemia = test system: HL-60(TB) leukemia
# U251 CNS = test system: U251 CNS
# HCT-116 colon = test system: HCT-116 colon
# UO-31 renal = test system: UO-31 renal
# SF-268 CNS = test system: SF-268 CNS
# HCT-15 colon = test system: HCT-15 colon
# MALME-3M melanoma = test system: MALME-3M melanoma
# CAKI-1 renal = test system: CAKI-1 renal
structure (smiles),measurement,setting,value
COc1ccc(/C=C(\C#N)c2ccc(OC)cc2)cc1,GI50,A549 NSCLC,> 100 µM
same,TGI,A549 NSCLC,> 100 µM
same,GI50,T-47D breast,32.2 µM
same,TGI,T-47D breast,> 100 µM
same,GI50,UACC-62 melanoma,10.3 µM
same,TGI,UACC-62 melanoma,> 100 µM
same,GI50,SNB-75 CNS,87.6 µM
same,TGI,SNB-75 CNS,> 100 µM
same,GI50,HCC-2998 colon,7.38 µM
same,TGI,HCC-2998 colon,> 100 µM
same,GI50,SK-OV-3 ovarian,42 µM
same,TGI,SK-OV-3 ovarian,> 100 µM
same,GI50,COLO 205 colon,21.1 µM
same,TGI,COLO 205 colon,> 100 µM
same,GI50,SF-295 CNS,8.01 µM
same,TGI,SF-295 CNS,> 100 µM
same,GI50,TK-10 renal,> 100 µM
same,TGI,TK-10 renal,> 100 µM
same,GI50,NCI-H460 lung,7.31 µM
same,TGI,NCI-H460 lung,> 100 µM
same,GI50,HOP-92 NSCLC,23.5 µM
same,TGI,HOP-92 NSCLC,> 100 µM
same,GI50,DU-145 prostate,14.9 µM
same,TGI,DU-145 prostate,> 100 µM
same,GI50,OVCAR-3 ovarian,7.59 µM
same,TGI,OVCAR-3 ovarian,52 µM
same,GI50,786-0 renal,> 100 µM
same,TGI,786-0 renal,> 100 µM
same,GI50,OVCAR-8 ovarian,91.8 µM
same,TGI,OVCAR-8 ovarian,> 100 µM
same,GI50,NCI-H23 lung,9.77 µM
same,TGI,NCI-H23 lung,> 100 µM
same,GI50,OVCAR-5 ovarian,62.3 µM
same,TGI,OVCAR-5 ovarian,> 100 µM
same,GI50,LOX IMVI melanoma,13.3 µM
same,TGI,LOX IMVI melanoma,> 100 µM
same,GI50,SF-539 CNS,20.7 µM
same,TGI,SF-539 CNS,> 100 µM
same,GI50,RPMI-8226 leukemia,9.48 µM
same,TGI,RPMI-8226 leukemia,> 100 µM
same,GI50,NCI-H522 lung,42.8 µM
same,TGI,NCI-H522 lung,> 100 µM
same,GI50,HT29 colon,7.1 µM
same,TGI,HT29 colon,> 100 µM
same,GI50,RXF 393 renal,13.7 µM
same,TGI,RXF 393 renal,> 100 µM
same,GI50,A498 renal,> 100 µM
same,TGI,A498 renal,> 100 µM
same,GI50,PC-3 prostate,30 µM
same,TGI,PC-3 prostate,> 100 µM
same,GI50,CCRF-CEM leukemia,9.47 µM
same,TGI,CCRF-CEM leukemia,> 100 µM
same,GI50,NCI/ADR-RES ovarian,3.13 µM
same,TGI,NCI/ADR-RES ovarian,29.3 µM
same,GI50,IGROV1 ovarian,46.1 µM
same,TGI,IGROV1 ovarian,> 100 µM
same,GI50,MCF7 breast,41.5 µM
same,TGI,MCF7 breast,> 100 µM
same,GI50,SW-620 colon,5.81 µM
same,TGI,SW-620 colon,> 100 µM
same,GI50,HOP-62 NSCLC,69.9 µM
same,TGI,HOP-62 NSCLC,> 100 µM
same,GI50,NCI-H226 lung,> 100 µM
same,TGI,NCI-H226 lung,> 100 µM
same,GI50,UACC-257 melanoma,> 100 µM
same,TGI,UACC-257 melanoma,> 100 µM
same,GI50,MDA-MB-231 breast,33.6 µM
same,TGI,MDA-MB-231 breast,> 100 µM
same,GI50,BT-549 breast,22.9 µM
same,TGI,BT-549 breast,> 100 µM
same,GI50,SK-MEL-5 melanoma,4.85 µM
same,TGI,SK-MEL-5 melanoma,> 100 µM
same,GI50,SNB-19 CNS,82.8 µM
same,TGI,SNB-19 CNS,> 100 µM
same,GI50,K-562 leukemia,2.78 µM
same,TGI,K-562 leukemia,> 100 µM
same,GI50,SK-MEL-28 melanoma,> 100 µM
same,TGI,SK-MEL-28 melanoma,> 100 µM
same,GI50,KM12 colon,3.87 µM
same,TGI,KM12 colon,> 100 µM
same,GI50,MOLT-4 leukemia,5.49 µM
same,TGI,MOLT-4 leukemia,> 100 µM
same,GI50,HS 578T breast,82.2 µM
same,TGI,HS 578T breast,> 100 µM
same,GI50,ACHN renal,76.1 µM
same,TGI,ACHN renal,> 100 µM
same,GI50,MDA-MB-435,0.563 µM
same,TGI,MDA-MB-435,18.4 µM
same,GI50,SK-MEL-2 melanoma,> 100 µM
same,TGI,SK-MEL-2 melanoma,> 100 µM
same,GI50,SN12C renal,81.7 µM
same,TGI,SN12C renal,> 100 µM
same,GI50,EKVX NSCLC,14.5 µM
same,TGI,EKVX NSCLC,> 100 µM
same,GI50,OVCAR-4 ovarian,27.4 µM
same,TGI,OVCAR-4 ovarian,> 100 µM
same,GI50,SR leukemia,2.07 µM
same,TGI,SR leukemia,> 100 µM
same,GI50,M14 melanoma,8.18 µM
same,TGI,M14 melanoma,> 100 µM
same,GI50,HL-60(TB) leukemia,13.5 µM
same,TGI,HL-60(TB) leukemia,> 100 µM
same,GI50,U251 CNS,20.6 µM
same,TGI,U251 CNS,> 100 µM
same,GI50,HCT-116 colon,7.15 µM
same,TGI,HCT-116 colon,> 100 µM
same,GI50,UO-31 renal,> 100 µM
same,TGI,UO-31 renal,> 100 µM
same,GI50,SF-268 CNS,> 100 µM
same,TGI,SF-268 CNS,> 100 µM
same,GI50,HCT-15 colon,4.56 µM
same,TGI,HCT-15 colon,> 100 µM
same,GI50,MALME-3M melanoma,> 100 µM
same,TGI,MALME-3M melanoma,> 100 µM
same,GI50,CAKI-1 renal,13.1 µM
same,TGI,CAKI-1 renal,> 100 µM

# Reference: PubChem BioAssay (NCI)
